The source of these data is patent US7556957B2, “Coronavirus-like particles comprising functionally deleted genomes” (Stichting voor de Technische Wetenschappen, priority 2001, dated 2009).

In experiment [1] the test system is MHV-A59 spike mediated cell-cell fusion in LR7 cells. In words: Cell-cell fusion inhibition plaque assay. The format is cell-based, mouse hepatitis virus (MHV) strain A59. Here is the method: FIG. 12: Inhibition of cell-cell fusion by HR2 peptide. After inoculation of parallel cultures of LR7, cells with MHV-A59 cells were overlaid with agar medium containing different concentrations of HR2 peptide and plaques were counted the following day.
(§1) The potency of the HR2 peptide in inhibiting viral infection was determined using the recombinant MHV-EFLM expressing the firefly luciferase. Confluent monolayers of LR7 cells in 96-well plates were inoculated at 37° C. in DMEM at a multiplicity of infection of 5 for 1 hour in the presence of varying concentrations of peptide ranging from 0.4-50 μM. After 1 hour, cells were washed with DMEM and medium was replaced by peptide-free DMEM. At 5 hours post-infection cells were lysed for 15 minutes at RT in 50 μl Lysis buffer, according to the manufacturer's protocol (Luciferase Assay System, Promega). Upon mixing of 10 μl cell lysate with 40 μl substrate, luciferase activity was measured immediately using a Wallace Betaluminometer. […]

The subject of experiment [2] is MHV-EFLM infection of LR7 cells. The experiment can be described thus: Virus-cell entry inhibition assay with luciferase-expressing MHV-EFLM. To be noted: peptide concentration 50 μM. The format is cell-based, mouse hepatitis virus (MHV) strain A59. As to the method:
FIG. 11: Inhibition of MHV infection by the HR2 peptide. LR7 cells were inoculated with the virus MHV-EFLM in the presence of different concentrations of HR2 peptide or, as a control, a peptide corresponding to amino acids 1003-1048 of the viral S protein. After one hour of inoculation, cells were washed and incubated further in the absence of peptide. To evaluate the success of the infection, cells were analyzed at 4 hours post-infection for luciferase expression. In the figure luciferase activity is plotted against the different peptide concentrations used.
as §1

Where no end group is shown, it is not given here.

As for “GPIEGRDLSLDFEKLNVTLLDLTYEMNRIQDAIKKLNESYINLKE [HR2 peptide]”, the “formation of plaques (cell-cell fusion)” value in experiment [1] (0.08 μM HR2 peptide in agar overlay) is “only tiny plaques”; in experiment [1] (HR2 peptide in agar overlay at concentrations of up to 0.4 μM), “completely abolished”. In addition, in experiment [2], the “inhibition of viral infection (entry)” value is listed as “inhibited virtually completely”.
